Structures are written as SMILES. Like-named read-outs stand apart in the source and are kept apart here.

These results are taken from patent publication US9144633B2, “Implantable devices coated with insulin-mimetic vanadium compounds and methods thereof” (RUTGERS, THE STATE UNIVERSITY OF NEW JERSEY, priority 2010, dated 2015).

One data set concerns bone fracture. Put plainly: Local VAC application without a carrier, fracture healing (preliminary data). To be noted: at the dosages tested. The format is in vivo. The text has this:
This evidence opens up many future applications to the use of VAC alone, or incorporated with a carrier as an option for fracture healing.

In a further data set the test system is bone homeostasis. To be noted: cited from earlier work.
For data set [1] the following is noted: cited from earlier work.
For a further data set, the system named is kidney and liver. To be noted: VAC treatment; cited from earlier work.

Take `CC(=O)/C=C(/C)[O-].CC(=O)/C=C(/C)[O-].[O]=[V+2]` [VAC, vanadyl acetylacetonate]: in the data set on bone fracture, the “speed of bone healing versus saline controls” value is listed as “more than twice as rapidly as saline controls”. The “effect on bone parameters” value in the data set on bone homeostasis (diabetic rats) is “improved the ultimate strength, Tb,Th, MAR, and plasma osteocalcin”; with bone homeostasis (normal rats), “did not affect any bone parameters”. For the same compound, the “tolerance / signs of toxicity” value in data set [1] (after several days) was “no signs of toxicity”. In data set [1] (widely distributed to all tissues), the “tissue distribution / accumulation” value is “greatest accumulation was within femur tissue”. Besides, the “function or structure of kidney and liver” value in the data set with kidney and liver is “does not impair the function or structure of kidney and liver”.
